Reference: patent US10782293B2, “Compositions and methods” (priority 2015, dated 2020)
Where two headings read alike, the source gives them in different places.

How the values were obtained:
[1] = system: antibodies in serum of cattle known not to be infected; assay type: binding
[2] = system: antibodies in serum of cattle infected with M. avium paratuberculosis (MAP); assay type: binding; conditions: serum 1:20, IgG Fc secondary antibody, average of four replicates
[3] = system: antibodies in serum of cattle infected with bovine M. tuberculosis (B tb); experiment: ELISA assay of antibody binding to antigen, serum of cattle naturally infected with bovine TB
Experimental: The binding of antibodies in serum of cattle infected with M. tuberculosis or M. avium with the antigens detailed in example 3 was measured in an ELISA assay.
ELISA assays were carried out as known to those practiced in the art using 96 well plates. In the first procedure, the ELISA assay was carried out on 96-well microplates and the purified antigens were dissolved in n-hexane at a concentration of 62.5 μg/ml. The antigen solutions were diluted and 50 μl and placed in each well. The plates were left to dry at room temperature overnight. Blocking was done with 0.5% casein/PBS (400 μl/well) and the plates are left to incubate at 25° C. for 1 h. The casein was aspirated using the LT-3500 plate washer and the plates flicked dry. Then the serum (1:20 dilution in 0.5% casein/PBS, pH 7.4) was added to the plate (50 μl/well) and left to incubate at 25° C. for 1 h. The serum was aspirated and washed three times with (casein/PBS, 400 μl/well) using the same plate washer and the plates were flicked dry again. After that, the secondary antibody, in the example given IgG Fc (1:1000 dilution in 0.5% casein/PBS) was added to the plate (50 μl/well) and the plates were left to incubate at 25° C. for 30 min. The plates were washed three times again with (casein/PBS, 400 μl/well) and dried. Then, the OPD substrate was added to the plates, which were left to incubate at 25° C. for 30 min. Finally, 2.5 M H2SO4 (50 μl/well) was added and the absorbances of each well were read at 492, 450 and 630 nm using an LT-4000 plate reader.
Serum used in this work was obtained from cattle infected with MAP, diagnosed as naturally infected with bovine TB, or known not to be infected using standard assays.
All measurements were taken as four replicates unless otherwise stated. These were averaged to provide the data in the table which are optical density measurements at 492 nm.

[4] = VLA (Non-vaccinates) serum sample 21
[5] = VLA (Non-vaccinates) serum sample 22
[6] = VLA (Non-vaccinates) serum sample 23
[7] = VLA (Non-vaccinates) serum sample 24
[8] = VLA (Non-vaccinates) serum sample 25
[9] = VLA (Non-vaccinates) serum sample 26
[10] = VLA (Non-vaccinates) serum sample 27
[11] = VLA (Non-vaccinates) serum sample 28
[12] = VLA (Non-vaccinates) serum sample 29
[13] = VLA (Non-vaccinates) serum sample 30
[14] = VLA (Non-vaccinates) serum sample 31
[15] = VLA (Non-vaccinates) serum sample 32
[16] = VLA (Non-vaccinates) serum sample 33
[17] = VLA (Non-vaccinates) serum sample 34
[18] = VLA (Non-vaccinates) serum sample 35
[19] = VLA (Non-vaccinates) serum sample 36
[20] = serum MAP (experimentally infected)
[21] = VLA (Naturally infected) bovis serum sample 1
[22] = VLA (Naturally infected) bovis serum sample 2
[23] = VLA (Naturally infected) bovis serum sample 3
[24] = VLA (Naturally infected) bovis serum sample 4
[25] = VLA (Naturally infected) bovis serum sample 5
[26] = VLA (Naturally infected) bovis serum sample 6
[27] = VLA (Naturally infected) bovis serum sample 7
[28] = VLA (Naturally infected) bovis serum sample 8
[29] = VLA (Naturally infected) bovis serum sample 9
[30] = VLA (Naturally infected) bovis serum sample 10
[31] = VLA (Naturally infected) bovis serum sample 11
[32] = VLA (Naturally infected) bovis serum sample 12
[33] = VLA (Naturally infected) bovis serum sample 13
[34] = VLA (Naturally infected) bovis serum sample 14
[35] = VLA (Naturally infected) bovis serum sample 15
[36] = VLA (Naturally infected) bovis serum sample 16
[37] = VLA (Naturally infected) bovis serum sample 17
[38] = VLA (Naturally infected) bovis serum sample 18
[39] = VLA (Naturally infected) bovis serum sample 19
[40] = VLA (Naturally infected) bovis serum sample 20

SMILES	optical density measurements at 492 nm [1, 4]	optical density measurements at 492 nm [1, 5]	optical density measurements at 492 nm [1, 6]	optical density measurements at 492 nm [1, 7]	optical density measurements at 492 nm [1, 8]	optical density measurements at 492 nm [1, 9]	optical density measurements at 492 nm [1, 10]	optical density measurements at 492 nm [1, 11]	optical density measurements at 492 nm [1, 12]	optical density measurements at 492 nm [1, 13]	optical density measurements at 492 nm [1, 14]	optical density measurements at 492 nm [1, 15]	optical density measurements at 492 nm [1, 16]	optical density measurements at 492 nm [1, 17]	optical density measurements at 492 nm [1, 18]	optical density measurements at 492 nm [1, 19]	optical density measurements at 492 nm ([2]; serum MAP (Naturally infected))	optical density measurements at 492 nm [2, 20]	optical density measurements at 492 nm [3, 21]	optical density measurements at 492 nm [3, 22]	also measured
CCCCCCCCCCCCCCCCCCCCCC[C@@H](C(=O)OCC1OC(OC2OC(COC(=O)[C@H](CCCCCCCCCCCCCCCCCCCCCC)[C@H](O)CCCCCCCCCCCCCCCC[C@H]3C[C@@H]3[C@@H](C)CCCCCCCCCCCCCCCCCCC(=O)O[C@@H](C)CCCCCCCCCCCCCCCCCC)C(O)C(O)C2O)C(O)C(O)C1O)[C@H](O)CCCCCCCCCCCCCCCC[C@H]1C[C@@H]1[C@@H](C)CCCCCCCCCCCCCCCCCCC(=O)O[C@@H](C)CCCCCCCCCCCCCCCCCC (stereo partly shown) [Antigen F]	0.25	0.25	0.17	0.21	0.15	3.66	1.96	0.36	0.29	0.26	0.45	0.06	0.08	0.11	0.31	0.12	4.00	1.44	1.07	0.67	optical density measurements at 492 nm [3, 23]: 2.47; optical density measurements at 492 nm [3, 24]: 0.67; optical density measurements at 492 nm [3, 25]: 0.29; optical density measurements at 492 nm [3, 26]: 0.18; optical density measurements at 492 nm [3, 27]: 0.51; optical density measurements at 492 nm [3, 28]: 2.23; optical density measurements at 492 nm [3, 29]: 0.18; optical density measurements at 492 nm [3, 30]: 0.24; optical density measurements at 492 nm [3, 31]: 0.31; optical density measurements at 492 nm [3, 32]: 1.08; optical density measurements at 492 nm [3, 33]: 0.66; optical density measurements at 492 nm [3, 34]: 0.23; optical density measurements at 492 nm [3, 35]: 0.12; optical density measurements at 492 nm [3, 36]: 0.62; optical density measurements at 492 nm [3, 37]: 0.47; optical density measurements at 492 nm [3, 38]: 0.52; optical density measurements at 492 nm [3, 39]: 0.69; optical density measurements at 492 nm [3, 40]: 1.08
CCCCCCCCCCCCCCCCCCCCCC[C@@H](C(=O)OCC1OC(OC2OC(CO)C(O)C(O)C2O)C(O)C(O)C1O)[C@H](O)CCCCCCCCCCCCCCCC[C@H]1C[C@@H]1[C@@H](C)CCCCCCCCCCCCCCCCCCC(=O)O[C@@H](C)CCCCCCCCCCCCCCCCCC (stereo partly shown) [Antigen G]	0.37	0.14	0.24	0.51	0.27	0.82	0.55	0.46	1.58	0.16	1.99	0.06	0.10	0.07	0.07	0.07	4.38	4.38	3.68	2.78	optical density measurements at 492 nm [3, 23]: 4.06; optical density measurements at 492 nm [3, 24]: 0.63; optical density measurements at 492 nm [3, 25]: 1.04; optical density measurements at 492 nm [3, 26]: 0.88; optical density measurements at 492 nm [3, 27]: 2.34; optical density measurements at 492 nm [3, 28]: 1.39; optical density measurements at 492 nm [3, 29]: 0.40; optical density measurements at 492 nm [3, 30]: 0.52; optical density measurements at 492 nm [3, 31]: 1.63; optical density measurements at 492 nm [3, 32]: 1.54; optical density measurements at 492 nm [3, 33]: 0.26; optical density measurements at 492 nm [3, 34]: 0.22; optical density measurements at 492 nm [3, 35]: 0.15; optical density measurements at 492 nm [3, 36]: 0.15; optical density measurements at 492 nm [3, 37]: 0.11; optical density measurements at 492 nm [3, 38]: 0.27; optical density measurements at 492 nm [3, 39]: 0.11; optical density measurements at 492 nm [3, 40]: 1.54
